Measured values as given in patent US9981976B2, “Piperidine substituted pyrazolo[1,5-A]pyrimidine derivatives with inhibitory activity on the replication of the respiratory syncytial virus (RSV)” (priority 2014, dated 2018).

Experiments:
rgRSV224 virus = assay: microbe, parasite or virus in culture; assay type: cell-based, respiratory syncytial virus (RSV); details: for EC50: human respiratory syncytial virus, HeLa, 72 h, read-out: RSV HELA pEC50, rgRSV224 virus (MOI=1), HeLa cells, GFP expression three days post-virus exposure (converted)
HeLa cells = assay: Cytotoxicity in HeLa cells, ATP content (ATPlite kit); details: three days incubation, CC50 = 50% concentration for cytotoxicity
Procedure: Black 384-well clear-bottom microtiter plates (Corning, Amsterdam, The Netherlands) were filled via acoustic drop ejection using the echo liquid handler (Labcyte, Sunnyvale, Calif.). 200 nL of compound stock solutions (100% DMSO) were transferred to the assay plates. 9 serial 4-fold dilutions of compound were made, creating per quadrant the same compound concentration. The assay was initiated by adding 10 μL of culture medium to each well (RPMI medium without phenol red, 10% FBS-heat inactivated, 0.04% gentamycin (50 mg/mL). All addition steps are done by using a multidrop dispenser (Thermo Scientific, Erembodegem, Belgium). Next, rgRSV224 virus (MOI=1) diluted in culture medium was added to the plates. rgRSV224 virus is an engineered virus that includes an additional GFP gene (Hallak L K, Spillmann D, Collins P L, Peeples M E. Glycosaminoglycan sulfation requirements for respiratory syncytial virus infection; Journal of virology (2000), 74(22), 10508-13) and was in-licensed from the NIH (Bethesda, Md., USA). Finally, 20 μL of a HeLa cell suspension (3,000 cells/well) were plated. Medium, virus- and mock-infected controls were included in each test. The wells contain 0.05% DMSO per volume. Cells were incubated at 37° C. in a 5% CO2 atmosphere. Three days post-virus exposure, viral replication was quantified by measuring GFP expression in the cells by an in house developed MSM laser microscope (Tibotec, Beerse, Belgium). The EC50 was defined as the 50% inhibitory concentration for GFP expression. In parallel, compounds were incubated for three days in a set of white 384-well microtiter plates (Corning) and the cytotoxicity of compounds in HeLa cells was determined by measuring the ATP content of the cells using the ATPlite kit (Perkin Elmer, Zaventem, Belgium) according to the manufacturer's instructions. The CC50 was defined as the 50% concentration for cytotoxicity.

SMILES	RSV HELA pEC50 (rgRSV224 virus; rgRSV224 virus (MOI=1), HeLa cells, GFP expression three days post-virus exposure)	SI TOX HELA (HeLa cells)	EC50 (rgRSV224 virus) [nM]
CS(=O)(=O)Nc1nc(N2CCCC[C@H]2c2cc3nc(N4CCC4)cc(N4CCOCC4)n3n2)c2cc(Cl)ccc2n1 (stereo in doubt) [P32, N-(4-(2-(5-(azetidin-1-yl)-7-morpholinopyrazolo[1,5-a]pyrimidin-2-yl)piperidin-1-yl)-6-chloroquinazolin-2-yl)methanesulfonamide]	7.3	<4	–
Cc1cn2nc(C3CCCCN3c3ncnc4cccc(C)c34)cc2nc1N1CC[C@@H](N)C1 (stereo in doubt) [P48, (3 S)-1-(6-methyl-2-(1-(5-methylquinazolin-4-yl)piperidin-2-yl)-pyrazolo[1,5-a]pyrimidin-5-yl)pyrrolidin-3-amine]	–	4.5	12.6
Cc1ccc2ncnc(N3CCCCC3c3cc4nc(N5CCC(N)C5)ccn4n3)c2c1 (stereo in doubt) [P49, (3S)-1-(2-(1-(6-methylquinazolin-4-yl)piperidin-2-yl)pyrazolo[1,5-a]pyrimidin-5-yl)pyrrolidin-3-amine]	–	4.3	794
Cc1ccc2ncnc(N3CCCC[C@H]3c3cc4nc(N5CCC(N)C5)ccn4n3)c2c1 (stereo in doubt) [P51, (S)-1-(2-((S)-1-(6-methylquinazolin-4-yl)piperidin-2-yl)pyrazolo-[1,5-a]pyrimidin-5-yl)pyrrolidin-3-amine]	–	4.3	316
Clc1ccc2ncnc(N3CCCCC3c3cc4nc(N5CCC5)cc(N5CCOCC5)n4n3)c2c1 (stereo not shown) [P1, 4-(5-(azetidin-1-yl)-2-(1-(6-chloroquinazolin-4-yl)piperidin-2-yl)-pyrazolo[1,5-a]pyrimidin-7-yl)morpholine]	–	4.4	794
Clc1ccc2ncnc(N3CCCC[C@H]3c3cc4nc(N5CCC5)cc(N5CCOCC5)n4n3)c2c1 [P2, (S)-4-(5-(azetidin-1-yl)-2-(1-(6-chloroquinazolin-4-yl)piperidin-2-yl)-pyrazolo[1,5-a]pyrimidin-7-yl)morpholine]	–	4.4	316
Clc1ccc2ncnc(N3CCCC[C@@H]3c3cc4nc(N5CCC5)cc(N5CCOCC5)n4n3)c2c1 [P3, (R)-4-(5-(azetidin-1-yl)-2-(1-(6-chloroquinazolin-4-yl)piperidin-2-yl)pyrazolo[1,5-a]pyrimidin-7-yl)morpholine]	–	4.6	3980
Cc1ccc2ncnc(N3CCCCC3c3cc4nc(N5CCC5)cc(N5CCOCC5)n4n3)c2c1 (stereo not shown) [P4, 4-(5-(azetidin-1-yl)-2-(1-(6-methylquinazolin-4-yl)piperidin-2-yl)-pyrazolo[1,5-a]pyrimidin-7-yl)morpholine]	–	<4	158
Cc1ccc2nc(Cl)nc(N3CCCCC3c3cc4nc(N5CCC5)cc(N5CCOCC5)n4n3)c2c1 (stereo not shown) [P5, 4-(5-(azetidin-1-yl)-2-(1-(2-chloro-6-methylquinazolin-4-yl)piperidin-2-yl)pyrazolo[1,5-a]pyrimidin-7-yl)morpholine]	–	<5	251
Cc1ccc2nc(NS(C)(=O)=O)nc(N3CCCCC3c3cc4nc(N5CCC5)cc(N5CCOCC5)n4n3)c2c1 (stereo not shown) [P6, N-(4-(2-(5-(azetidin-1-yl)-7-morpholinopyrazolo[1,5-a]pyrimidin-2-yl)piperidin-1-yl)-6-methylquinazolin-2-yl)methanesulfonamide]	–	<4.0	5.01
Cc1ccc2nc(NS(C)(=O)=O)nc(N3CCCC[C@@H]3c3cc4nc(N5CCC5)cc(N5CCOCC5)n4n3)c2c1 [P7, (R)—N-(4-(2-(5-(azetidin-1-yl)-7-morpholinopyrazolo[1,5-a]pyrimidin-2-yl)-piperidin-1-yl)-6-methylquinazolin-2-yl)methanesulfonamide]	–	<4	2000
Cc1ccc2nc(NS(C)(=O)=O)nc(N3CCCC[C@H]3c3cc4nc(N5CCC5)cc(N5CCOCC5)n4n3)c2c1 [P8, (S)—N-(4-(2-(5-(azetidin-1-yl)-7-morpholinopyrazolo[1,5-a]pyrimidin-2-yl)piperidin-1-yl)-6-methylquinazolin-2-yl)methanesulfonamide]	–	<4	7.94
Cc1cccc2nc(NS(C)(=O)=O)nc(N3CCCCC3c3cc4nc(N5CCC5)cc(N5CCOCC5)n4n3)c12 (stereo not shown) [P9, N-(4-(2-(5-(azetidin-1-yl)-7-morpholinopyrazolo[1,5-a]pyrimidin-2-yl)piperidin-1-yl)-5-methylquinazolin-2-yl)methanesulfonamide]	–	<4.6	5.01
CS(=O)(=O)Nc1nc(N2CCCCC2c2cc3nc(N4CCC4)cc(N4CCOCC4)n3n2)c2ccccc2n1 (stereo not shown) [P10, N-(4-(2-(5-(azetidin-1-yl)-7-morpholinopyrazolo[1,5-a]pyrimidin-2-yl)piperidin-1-yl)quinazolin-2-yl)methanesulfonamide]	–	<4.3	631
Cc1ccc2ncnc(N3CCCCC3c3cc4nc(N5CC(N)C5)c(C)cn4n3)c2c1 (stereo not shown) [P13, 1-(6-methyl-2-(1-(6-methylquinazolin-4-yl)piperidin-2-yl)pyrazolo-[1,5-a]pyrimidin-5-yl)azetidin-3-amine]	–	4.3	398
COCCOC(=O)Nc1nc(N2CCCCC2c2cc3nc(N4CCC4)cc(N4CCOCC4)n3n2)c2cc(N3CCOCC3)ccc2n1 (stereo not shown) [P14, 2-methoxyethyl 4-(2-(5-(azetidin-1-yl)-7-morpholinopyrazolo[1,5-a]-pyrimidin-2-yl)piperidin-1-yl)-6-morpholinoquinazolin-2-ylcarbamate]	–	<4	794
Cc1nc(N2CCCCC2c2cc3nc(N4CCC4)cc(N4CCOCC4)n3n2)c2cc[nH]c2n1 (stereo not shown) [P15, 4-(5-(azetidin-1-yl)-2-(1-(2-methyl-7H-pyrrolo[2,3-d]pyrimidin-4-yl)-piperidin-2-yl)pyrazolo[1,5-a]pyrimidin-7-yl)morpholine]	–	4.0	251
CCOc1nc(N2CCCCC2c2cc3nc(N4CCC4)cc(N4CCOCC4)n3n2)c2cccnc2n1 (stereo not shown) [P16, 4-(5-(azetidin-1-yl)-2-(1-(2-ethoxypyrido[2,3-d]pyrimidin-4-yl)-piperidin-2-yl)pyrazolo[1,5-a]pyrimidin-7-yl)morpholine]	–	4.3	79.4
Cc1cccc2ncnc(N3CCCCC3c3cc4nc(N5CCC5)cc(N5CCOCC5)n4n3)c12 (stereo not shown) [P17, 4-(5-(azetidin-1-yl)-2-(1-(5-methylquinazolin-4-yl)piperidin-2-yl)-pyrazolo[1,5-a]pyrimidin-7-yl)morpholine]	–	4.4	3.98
Cc1cccc2ncnc(N3CCCC[C@@H]3c3cc4nc(N5CCC5)cc(N5CCOCC5)n4n3)c12 [P18, (R)-4-(5-(azetidin-1-yl)-2-(1-(5-methylquinazolin-4-yl)piperidin-2-yl)-pyrazolo[1,5-a]pyrimidin-7-yl)morpholine]	–	<4.3	> 1000
Cc1cccc2ncnc(N3CCCC[C@H]3c3cc4nc(N5CCC5)cc(N5CCOCC5)n4n3)c12 [P19, (S)-4-(5-(azetidin-1-yl)-2-(1-(5-methylquinazolin-4-yl)piperidin-2-yl)pyrazolo[1,5-a]pyrimidin-7-yl)morpholine]	–	<4.3	10
Cc1ccc(C)c2c(N3CCCCC3c3cc4nc(N5CCC5)cc(N5CCOCC5)n4n3)ncnc12 (stereo not shown) [P66, 4-(5-(azetidin-1-yl)-2-(1-(5,8-dimethylquinazolin-4-yl)piperidin-2-yl)-pyrazolo[1,5-a]pyrimidin-7-yl)morpholine]	–	–	100
